Data on 3 compounds can be found in article PMC9007972, “Structural and biochemical evidence that ATP inhibits the cancer biomarker human aldehyde dehydrogenase 1A3” (Communications Biology, 2022).

Test [1] deals with T1, ALDH1A3 (Homo sapiens, UniProt P47895).
T1 sequence (P47895 2-512): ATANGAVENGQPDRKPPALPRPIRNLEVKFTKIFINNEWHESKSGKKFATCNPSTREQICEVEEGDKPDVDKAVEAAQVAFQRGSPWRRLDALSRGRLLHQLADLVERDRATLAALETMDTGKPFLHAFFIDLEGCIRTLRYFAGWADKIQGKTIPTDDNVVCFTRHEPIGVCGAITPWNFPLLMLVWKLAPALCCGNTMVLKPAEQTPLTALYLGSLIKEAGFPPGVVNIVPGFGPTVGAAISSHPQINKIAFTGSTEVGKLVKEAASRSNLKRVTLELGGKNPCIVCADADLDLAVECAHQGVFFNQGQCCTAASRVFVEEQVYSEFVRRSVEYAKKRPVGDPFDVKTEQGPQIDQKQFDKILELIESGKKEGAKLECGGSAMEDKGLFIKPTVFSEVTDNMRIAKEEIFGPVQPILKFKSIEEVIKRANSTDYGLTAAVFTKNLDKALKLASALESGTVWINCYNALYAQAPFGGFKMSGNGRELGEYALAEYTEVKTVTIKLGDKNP
Description: dehydrogenase activity with hexanal, […] ADP (remaining activity). Set-up: His6-tagged, pET-30 Xa/LIC. To be noted: read-out: % remaining activity at 0.5 mM. The class given is biochemical.

Test [2] deals with T1, ALDH1A3. Description: X-ray crystal structure ([…] Å); Km from enzyme kinetics without Mg2+. On the set-up: His6-tagged, pET-30 Xa/LIC. In kind it is biochemical.
For the next test, the target named is T2, ALDH3A1 (Homo sapiens, UniProt P30838).
T2 construct: His6-tagged, pET-30 Xa/LIC
T2 sequence (P30838 2-453): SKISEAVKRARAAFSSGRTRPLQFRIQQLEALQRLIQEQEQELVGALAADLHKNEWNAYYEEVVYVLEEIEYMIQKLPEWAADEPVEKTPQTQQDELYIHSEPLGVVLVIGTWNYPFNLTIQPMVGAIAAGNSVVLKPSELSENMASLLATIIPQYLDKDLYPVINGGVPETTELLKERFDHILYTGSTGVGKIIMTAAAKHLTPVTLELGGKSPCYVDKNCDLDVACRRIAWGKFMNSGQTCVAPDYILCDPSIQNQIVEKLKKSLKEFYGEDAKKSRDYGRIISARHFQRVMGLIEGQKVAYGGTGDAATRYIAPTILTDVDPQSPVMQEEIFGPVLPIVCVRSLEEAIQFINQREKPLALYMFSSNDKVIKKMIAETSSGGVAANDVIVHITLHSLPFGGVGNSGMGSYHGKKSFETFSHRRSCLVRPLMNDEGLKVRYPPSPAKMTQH
As to the kind of experiment: fluorimetric dehydrogenase assay with hexanal, […] ATP. In kind it is biochemical. To be noted: read-out: % remaining activity at 2 mM.

For a further test, the target named is T3, ALDH1A1 (Homo sapiens, UniProt P00352).
T3 construct: His6-tagged, pET-30 Xa/LIC
T3 sequence (P00352 2-501): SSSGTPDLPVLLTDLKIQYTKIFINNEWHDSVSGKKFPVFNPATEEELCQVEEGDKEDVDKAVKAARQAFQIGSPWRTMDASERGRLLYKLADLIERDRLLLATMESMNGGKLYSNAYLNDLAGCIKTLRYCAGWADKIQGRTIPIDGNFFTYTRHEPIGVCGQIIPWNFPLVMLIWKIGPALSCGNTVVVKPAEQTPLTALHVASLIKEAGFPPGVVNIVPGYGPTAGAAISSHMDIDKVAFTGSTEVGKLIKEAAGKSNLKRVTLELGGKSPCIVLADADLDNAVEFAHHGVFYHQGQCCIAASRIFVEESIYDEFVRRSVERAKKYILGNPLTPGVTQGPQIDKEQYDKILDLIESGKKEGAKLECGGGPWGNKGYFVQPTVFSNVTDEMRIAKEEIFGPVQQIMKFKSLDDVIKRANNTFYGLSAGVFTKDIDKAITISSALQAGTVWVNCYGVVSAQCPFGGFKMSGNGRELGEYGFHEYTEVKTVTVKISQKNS
The description is as above. The class given is biochemical. To be noted: read-out: % remaining activity at 2 mM.

Another test has as its target T4, ALDH1A2 (Homo sapiens, UniProt O94788).
T4 construct: His6-tagged, pET-30 Xa/LIC
T4 sequence (O94788 1-518): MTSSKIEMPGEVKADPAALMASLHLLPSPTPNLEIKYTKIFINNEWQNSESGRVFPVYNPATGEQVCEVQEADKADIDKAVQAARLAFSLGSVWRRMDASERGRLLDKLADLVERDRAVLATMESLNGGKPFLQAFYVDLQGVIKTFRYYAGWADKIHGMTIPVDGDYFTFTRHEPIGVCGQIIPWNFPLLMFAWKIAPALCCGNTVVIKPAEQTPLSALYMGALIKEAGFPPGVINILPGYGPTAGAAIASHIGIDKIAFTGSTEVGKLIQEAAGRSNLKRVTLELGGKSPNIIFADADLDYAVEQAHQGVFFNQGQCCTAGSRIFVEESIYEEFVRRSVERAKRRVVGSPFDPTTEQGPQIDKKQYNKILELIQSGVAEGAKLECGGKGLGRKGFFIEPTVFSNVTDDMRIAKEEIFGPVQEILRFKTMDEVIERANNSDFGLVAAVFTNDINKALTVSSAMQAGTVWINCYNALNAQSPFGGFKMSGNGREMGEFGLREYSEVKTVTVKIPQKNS
The test is described as above. The class given is biochemical. To be noted: read-out: % remaining activity at 2 mM.

Test [3] addresses T1, ALDH1A3. As to the kind of experiment: biochemical.

As to `Nc1ncnc2c1ncn2[C@@H]1O[C@H](COP(=O)(O)OP(=O)(O)O)[C@@H](O)[C@H]1O` [ADP], the remaining activity at 500 µM on ALDH1A3 [1] amounted to 56 ± 4%.
`NC(=O)c1ccc[n+]([C@@H]2O[C@H](COP(=O)([O-])OP(=O)(O)OC[C@H]3O[C@@H](n4cnc5c(N)ncnc54)[C@H](O)[C@@H]3O)[C@@H](O)[C@H]2O)c1` [NAD^+]: the Km at ALDH1A3 [2] came out at 24 ± 2 µM.
`Nc1ncnc2c1ncn2[C@@H]1O[C@H](CO[P@@](=O)(O)O[P@](=O)(O)OP(=O)(O)O)[C@@H](O)[C@H]1O` [ATP]: the remaining activity at 2000 µM on ALDH3A1 is 25 ± 1%; on ALDH1A1, 43 ± 1%; on ALDH1A2, 68 ± 2%. The Ki at ALDH1A3 [3] turned out to be 480 ± 80 µM.

Broadly, the remaining activity is what remains of the control signal, in per cent. By Km is commonly meant the concentration of substrate that gives half-maximal velocity. Usually Ki stands for a dissociation constant, usually derived from enzyme kinetics or from competition with a known ligand. A lower Ki goes with tighter binding.
